Legend:
[1] = target: purified PARP protein (Homo sapiens, UniProt P09874); assay: PARP Enzyme Inhibition Assay; format: biochemical; conditions: [32P]NAD+ incorporation, 500 μM NAD+, 25° C.; competitive inhibition fit; read-out: Inhibition Constant Ki
Procedure: The PARP enzyme-inhibiting activities of test compounds were assayed as described by Simonin et al. (J. Biol. Chem. (1993), 268:8529-8535) and Marsischky et al. (J. Biol. Chem. (1995), 270:3247-3254) with minor modifications as follows. Samples (50 μL) containing 20 nM purified PARP protein, 10 μg/mL DNAse I-activated calf thymus DNA (sigma), 500 μM NAD^+, 0.5 μCi [^32P]NAD^+, 2% DMSO, and various concentrations of test compounds were incubated in sample buffer (50 mM Tris pH 8.0, 10 mM MgCl2, 1 mM tris(carboxyethyl)phosphine HCl) at 25° C. for 5 minutes. Under these conditions, the reaction rate was linear for times up to 10 minutes. The reaction was stopped by the addition of an equal volume of ice-cold 40% trichloroacetic acid to the samples, which were then incubated on ice for 15 minutes. The samples were then transferred to a Bio-Dot microfiltration apparatus (BioRad), filtered through Whatman GF/C glass-fiber filter paper, washed 3 times with 150 μL of wash buffer (5% trichloroacetic acid, 1% inorganic pyrophosphate), and dried. [^32P]ADP-Ribose incorporation into the acid-insoluble material was quantitated using a PhosphorImager (Molecular Dynamics) and ImageQuant software. Inhibition constants (Ki) were calculated by non-linear regression analyses using the velocity equation for competitive inhibition (Segel, Enzyme Kinetics: Behavior and Analysis of Rapid Equilibrium and Steady-State Enzyme Systems, John Wiley & Sons, Inc., New York (1975), 100-125). In the case of tight-binding inhibitors, 5 nM enzyme was used and the reaction was incubated at 25° C. for 25 minutes. Ki values for tight-binding inhibitors were calculated using the equation described by Sculley et al. (Biochim. Biophys. Acta (11986), 874:44-53).

[2] = system: A549 cells; assay: Cytotoxicity Potentiation Assay; format: cell-based; conditions: ratio of IC50 of topotecan alone to IC50 of topotecan in combination with test compound
Procedure: A549 cells (ATCC, Rockville, Md.) were seeded into 96-well cell culture plates (Falcon brand, Fisher Scientific, Pittsburgh, Pa.) 16 to 24 hours before experimental manipulation. Cells were then treated with a test compound (or a combination of test compounds where indicated) for either 3 days or 5 days. At the end of treatments, relative cell number was determined either by MTT assay or SRB assay. For the MTT assay, 0.2 μg/μl of MTT (3-(4,5-dimethylthiazol-2-yl)-2,5-diphenyltetrazolium bromide, Sigma Chemical Co., St. Louis, Mo.) was added to each well of a plate, and the plate was incubated in a cell-culture incubator for 4 hours. Metabolized MTT in each well was solubilized in 150 μl of DMSO (Sigma Chemical Co.) with shaking and quantified with a Wallac 1420 Victor plate reader (EG & G Wallac, Gaithersburg, Md.) at 540 nm. For the SRB assay, cells were fixed with 10% trichloroacetic acid (Sigma Chemical Co) for an hour at 4° C. After extensively washing, fixed cells were stained for 30 minutes with 0.4% sulforhodamine B (SRB, Sigma Chemical Co.) in 1% acetic acid (Sigma Chemical Co). Unbound SRB was washed away with 1% acetic acid. Then the cultures were air-dried, and bound dye was solubilized with 10 mM unbuffered Tris base (Sigma Chemical Co) with shaking. The bound dye was measured photometrically with the Wallac Victor plate reader at 515 nm. The ratio of the OD (optical density) value of a compound-treated culture to the OD value of a mock-treated culture, expressed in percentage, was used to quantify the cytotoxicity of a compound. The concentration at which a compound causes 50% cytotoxicity is referred to as IC50. To quantify the potentiation of the cytotoxicity of topotecan or temozolomide by test compounds, a dimensionless parameter PF50 is used and is defined as the ratio of the IC50 Of topotecan or temozolomide alone to the IC50 of topotecan or temozolomide in combination with a test compound. For the compounds of the invention, PF50 values were determined by testing with topotecan.

Chain of purified PARP protein (P09874 whole entry): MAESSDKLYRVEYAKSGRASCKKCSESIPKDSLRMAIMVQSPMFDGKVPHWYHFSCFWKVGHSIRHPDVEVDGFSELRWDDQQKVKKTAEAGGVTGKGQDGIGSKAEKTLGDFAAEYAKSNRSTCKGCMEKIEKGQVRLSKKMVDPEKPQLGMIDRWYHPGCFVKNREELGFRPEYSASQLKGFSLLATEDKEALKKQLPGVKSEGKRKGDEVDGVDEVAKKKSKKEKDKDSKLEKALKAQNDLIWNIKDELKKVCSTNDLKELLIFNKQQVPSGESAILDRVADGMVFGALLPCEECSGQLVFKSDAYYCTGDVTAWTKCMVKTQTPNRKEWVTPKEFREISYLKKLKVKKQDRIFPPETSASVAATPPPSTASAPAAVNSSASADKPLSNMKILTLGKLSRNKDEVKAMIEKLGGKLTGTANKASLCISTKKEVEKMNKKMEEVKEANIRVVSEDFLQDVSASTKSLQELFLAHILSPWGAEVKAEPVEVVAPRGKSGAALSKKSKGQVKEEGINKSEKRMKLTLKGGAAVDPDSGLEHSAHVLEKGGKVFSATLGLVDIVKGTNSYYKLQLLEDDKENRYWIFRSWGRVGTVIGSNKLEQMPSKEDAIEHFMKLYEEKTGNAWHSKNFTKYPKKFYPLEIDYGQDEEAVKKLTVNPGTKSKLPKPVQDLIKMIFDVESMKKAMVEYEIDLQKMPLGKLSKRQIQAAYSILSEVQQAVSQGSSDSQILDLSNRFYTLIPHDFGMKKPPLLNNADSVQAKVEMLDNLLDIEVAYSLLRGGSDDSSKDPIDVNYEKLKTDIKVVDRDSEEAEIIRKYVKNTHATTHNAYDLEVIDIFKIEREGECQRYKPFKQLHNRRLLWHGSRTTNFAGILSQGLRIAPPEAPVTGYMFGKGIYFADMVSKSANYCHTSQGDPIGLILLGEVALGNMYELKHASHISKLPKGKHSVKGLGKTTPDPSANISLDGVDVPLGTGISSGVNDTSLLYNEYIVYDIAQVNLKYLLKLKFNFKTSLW

| Compound | Ki [1] [nM] | Cytotoxicity Potentiation PF50 [2] |
| --- | --- | --- |
| NC(=O)c1cccc2[nH]c(CSc3ccccc3C3=NCCCN3)nc12 [Compound 7] | 6.9 ± 0.4 | 2.2 |
| CC(=O)c1ccc(N2CCN(Cc3nc4c(C(N)=O)cccc4[nH]3)CC2)cc1 [Compound 17, 2-[4-(4-Acetyl-phenyl)-piperazin-1-vimethyl]-1H-benzimidazole-4-carboxylic Acid Amide] | 19 ± 2 | 1.2 |
| CCCCNCCS(=O)(=O)Cc1nc2c(C(N)=O)cccc2[nH]1 [Compound 30, 2-(2-Butylamino-ethanesulfonylmethyl)-1H-benzimidazole-4-carboxylic Acid Amide] | 26 | 1.1 |
| NC(=O)c1cccc2[nH]c(CN3CCc4ccccc4C3)nc12 [Compound 19, 2-(3,4-Dihydro-1H-isoqluinolin-2-ylmethyl)-1H-benzimidazole-4-carboxylic Acid Amide] | 22 ± 2 | 1.1 |
| NC(=O)c1cccc2[nH]c(C[S+]([O-])c3ccc([N+](=O)[O-])cc3)nc12 (stereo not shown) [Compound 28, 2-(4-Nitro-benzenesulfinylmethyl)-1H-benzimidazole-4-carboxylic Acid Amide] | 3.9 ± 0.6 | 1.4 |
| NC(=O)c1cccc2[nH]c(CS(=O)(=O)c3ccc(C(F)(F)F)cc3)nc12 [Compound 34, 2-(4-Trifluoromethyl-benzenesulfonylmethyl)-1H-benzimidazole-4-carboxylic Acid Amide] | 12 ± 1 | 1.2 |
| CCCCNCCSCc1nc2c(C(N)=O)cccc2[nH]1 [Compound 1, 2-(2-Butylamino-ethylsulfanylmethyl)-1H-benzimidazole-4-carboxylic Acid Amide] | 29 ± 7 | 1.2 |

More lines, main results first:

| Ki [1] [nM] | Compound | Cytotoxicity Potentiation PF50 [2] |
| --- | --- | --- |
| 10.3 ± 0.3 | COc1ccc(S(=O)(=O)Cc2nc3c(C(N)=O)cccc3[nH]2)cc1 [Compound 33, 2-(4-Methoxy-benzenesulfonylmethyl)-1H-benzimidazole-4-carboxylic Acid Amide] | 1.3 |
| 24 | NC(=O)c1cccc2[nH]c(CS(=O)(=O)c3ccc(O)cc3)nc12 [Compound 29, 2-(4-Hydroxy-benzenesulfonylmethyl)-1H-benzimidazole-4-carboxylic Acid Amide] | 1.2 |
| 16 ± 1 | NC(=O)c1cccc2[nH]c(CS(=O)(=O)c3ccc(NC(=O)OCc4ccccc4)cc3)nc12 [Compound 38, [4(4-Carbamoyl-1H-benzoimidazol-2-ylmethanesulfonyl)-phenyl]-carbamic Acid Benzyl Ester] | 1.1 |
| 2.5 ± 0.2 | NC(=O)c1cccc2[nH]c(CS(=O)(=O)c3ccc([N+](=O)[O-])cc3)nc12 [Compound 27, 2-(4-Nitro-benzenesulfonylmethyl)-1H-benzimidazole-4-carboxylic Acid Amide] | 1.3 |
| 8.6 ± 0.1 | CN(CCc1ccccc1)Cc1nc2c(C(N)=O)cccc2[nH]1 [Compound 18, 2-[(Methyl-phenethyl-amino)-methyl]-1H-benzimidazole-4-carboxylic Acid Amide] | 1.4 |
| 7.4 | NC(=O)c1cccc2[nH]c(CS(=O)(=O)c3ccc(NC(=O)CO)cc3)nc12 [Compound 49] | 1.0 |
| 11 ± 3 | CC(=O)Nc1ccc(CSc2nc3c(C(N)=O)cccc3[nH]2)cc1 [Compound 42, 2-(4-Acetylamino-benzylsulfanyl)-1H-benzimidazole-4-carboxylic Acid Amide] | 1.1 |
| 10 ± 3 | CC(=O)Nc1ccc(SCc2nc3c(C(N)=O)cccc3[nH]2)cc1 [Compound 9, 2-(4-Acetylamino-phenylsulfanylmethyl)-1H-benzimidazole-4-carboxylic Acid Amide] | 1.1 |
| 10 ± 3 | CC(=O)Nc1ccc(S(=O)(=O)Cc2nc3c(C(N)=O)cccc3n2C)cc1 [Compound 48, 2-(4-Acetylamino-benzenesulfonylmethyl)-1-methyl-1H-benzoimidazole-4-carboxylic Acid Amide] | 1.2 |
| 3.8 ± 0.5 | CC(=O)Nc1ccc(S(=O)(=O)Cc2nc3c(C(N)=O)cccc3[nH]2)cc1 [Compound 32, 2-(4-Acetylamino-benzenesulfonylmethyl)-1H-benzimidazole-4-carboxylic Acid Amide] | 1.1 |
